From the supplement of paper PMC10307832

How the values were obtained:
Assay in all cases: relative viability (nuclei count vs DMSO), 5 days (fraction); higher = more cells survive
[1] = compound: C=CCc1cccc(/C=N/NC(=O)CN2CCN(Cc3ccccc3)CC2)c1O [PAC-1] + CC(=O)Nc1cccc(-n2c(=O)n(C3CC3)c(=O)c3c(Nc4ccc(I)cc4F)n(C)c(=O)c(C)c32)c1 [Trametinib] (partner 0.02 µM)
Summary of the method: (§1)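 Nuclei were stained with Hoechst during a one-step fixation (final 0.05% Triton X-100, 1% formaldehyde, 1 ug/ml Hoechst) carried out 5 days after dosing, then counted on 4× images. The cells, lung cancer lines in 1536-well plates, had been dosed by pin tool the day after seeding with one drug alone or a fixed anchor-drug dose plus five library-drug doses (not always all listed) in √10 steps. Relative viability is the nuclei count in treated wells divided by that in vehicle wells, and each value is the median of duplicate plates.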

[2] = compound: C=CCc1cccc(/C=N/NC(=O)CN2CCN(Cc3ccccc3)CC2)c1O [PAC-1] + C[C@]1(O)C[C@@H](c2nc(-c3ccc4ccc(-c5ccccc5)nc4c3)c3c(N)nccn32)C1 [Linsitinib] (partner 1 µM)
Summary of the method: as §1

[3] = compound: C=CCc1cccc(/C=N/NC(=O)CN2CCN(Cc3ccccc3)CC2)c1O [PAC-1] + CC1(C)CCC(c2ccc(Cl)cc2)=C(CN2CCN(c3ccc(C(=O)NS(=O)(=O)c4ccc(N[C@H](CCN5CCOCC5)CSc5ccccc5)c(S(=O)(=O)C(F)(F)F)c4)cc3)CC2)C1 [Navitoclax] (partner 0.5 µM)
Summary of the method: as §1

[4] = compound: C=CC(=O)Nc1cc(-n2c(=O)ccc3cnc4ccc(-c5ccc(NS(C)(=O)=O)cc5)cc4c32)ccc1C [BMX-IN-1] + Cc1nc(Nc2ncc(C(=O)Nc3c(C)cccc3Cl)s2)cc(N2CCN(CCO)CC2)n1 [Dasatinib] (partner 0.075 µM)
Summary of the method: as §1

Cell Line	relative viability ([1]; first compound 0.02 µM)	relative viability ([1]; first compound 0.06325 µM)	relative viability ([1]; first compound 0.2 µM)	relative viability ([1]; first compound 2 µM)	relative viability ([2]; first compound 0.02 µM)	relative viability ([2]; first compound 0.06325 µM)	relative viability ([2]; first compound 0.2 µM)	relative viability ([2]; first compound 2 µM)	relative viability ([3]; first compound 0.02 µM)	relative viability ([3]; first compound 0.06325 µM)	relative viability ([3]; first compound 0.2 µM)	relative viability ([3]; first compound 2 µM)	relative viability ([4]; first compound 0.02 µM)	relative viability ([4]; first compound 0.2 µM)	relative viability ([4]; first compound 0.6325 µM)	relative viability ([4]; first compound 2 µM)
LC-2-ad	0.933	0.919	0.897	0.954	0.849	0.825	0.782	0.78	0.464	0.427	0.35	0.331	0.658	0.737	0.74	0.642
LCLC-97TM1	0.179	0.196	–	0.221	–	0.196	0.196	0.165	–	0.395	0.307	0.62	0.927	0.893	1	0.943
LCLC-103H	0.636	0.697	0.708	0.714	1.04	1.13	1.14	0.98	–	–	–	–	0.519	0.477	0.522	0.535
LK-2	0.758	0.629	0.785	0.791	0.49	0.807	0.537	0.621	0.816	0.805	0.88	0.845	0.338	0.325	0.304	0.282
LOU-NH91	0.776	0.776	0.782	0.817	0.925	0.964	0.906	0.915	0.651	0.718	0.672	0.673	0.553	–	0.657	0.559
LU99A	0.542	0.475	0.539	0.564	0.562	0.514	0.518	0.489	0.939	0.836	0.717	0.801	0.646	0.56	0.793	0.555
LXF-289	0.7	0.718	0.705	0.675	0.972	0.992	0.946	0.909	0.944	0.948	0.932	0.927	0.197	0.204	0.247	0.266
NCI-H23	0.308	0.388	0.336	0.442	0.534	0.574	0.564	0.505	0.569	0.891	0.793	0.881	0.839	0.994	0.855	0.722
NCI-H322M	0.498	0.575	0.542	0.503	0.907	0.889	0.817	0.928	1.23	1.27	1.28	1.23	0.261	0.251	0.262	0.256
NCI-H358	0.128	0.121	0.164	0.128	0.657	0.786	0.709	0.506	–	–	–	–	0.166	0.145	0.176	0.135
NCI-H441	0.408	0.629	0.482	0.411	0.519	0.571	0.496	0.564	0.435	0.645	0.587	0.56	0.741	0.79	0.709	0.707
